Residue numbers refer to the chain shown, from its start.
Key:
[1] = biological target: T1, aryl hydrocarbon receptor (mAhR) (Mus musculus, UniProt P30561, S359A); experiment: [3H]TCDD specific binding, hydroxyapatite assay
T1 sequence (P30561 10-848 S359A): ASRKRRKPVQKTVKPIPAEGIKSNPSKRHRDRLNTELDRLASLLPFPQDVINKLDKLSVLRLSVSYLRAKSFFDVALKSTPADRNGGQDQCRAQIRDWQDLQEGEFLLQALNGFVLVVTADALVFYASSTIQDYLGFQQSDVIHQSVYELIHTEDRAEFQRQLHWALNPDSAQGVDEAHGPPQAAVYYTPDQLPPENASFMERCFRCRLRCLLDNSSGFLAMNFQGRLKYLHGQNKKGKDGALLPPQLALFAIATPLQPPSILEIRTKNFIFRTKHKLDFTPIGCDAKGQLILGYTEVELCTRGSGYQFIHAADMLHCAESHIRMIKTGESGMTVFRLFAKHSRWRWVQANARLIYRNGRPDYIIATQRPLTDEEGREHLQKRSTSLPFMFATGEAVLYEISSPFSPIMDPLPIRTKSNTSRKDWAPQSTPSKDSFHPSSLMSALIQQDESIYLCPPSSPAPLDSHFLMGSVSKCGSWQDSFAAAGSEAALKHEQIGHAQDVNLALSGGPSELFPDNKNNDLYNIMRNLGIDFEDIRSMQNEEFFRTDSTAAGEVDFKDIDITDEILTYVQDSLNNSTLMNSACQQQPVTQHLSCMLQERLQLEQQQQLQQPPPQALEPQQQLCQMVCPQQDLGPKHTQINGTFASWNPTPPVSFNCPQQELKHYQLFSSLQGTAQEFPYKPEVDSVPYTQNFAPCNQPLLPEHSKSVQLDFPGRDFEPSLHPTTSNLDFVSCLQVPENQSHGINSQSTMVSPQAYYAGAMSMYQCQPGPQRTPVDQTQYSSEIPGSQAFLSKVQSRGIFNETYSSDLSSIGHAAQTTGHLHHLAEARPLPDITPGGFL

[2] = biological target: T2, aryl hydrocarbon receptor (mAhR) (Mus musculus, UniProt P30561); experiment: [3H]TCDD; type: binding
T2 sequence (P30561 10-848): T1 sequence (P30561 10-848 S359A) with A350S

[3] = biological target: T2, aryl hydrocarbon receptor (mAhR); experiment: competitive [3H]TCDD hydroxyapatite radioligand binding assay; details: read-out: Experimental IC50 (M), in vitro synthesized mAhR

How did the “% reduction of binding vs wild type” value [1] turn out when `Clc1cc2c(cc1Cl)Oc1cc(Cl)c(Cl)cc1O2` [TCDD, 2,3,7,8-tetrachlorodibenzo-p-dioxin] was run?
The value was ~ 40 % reduction of binding vs wild type.

And the “[3H]TCDD (2 nM) specific binding, hydroxyapatite assay” value [2]?
The value was “THS compounds displace [^3H]TCDD from the in vitro synthesized AhR in concentration-dependent manner”.

How did the IC50 [3] turn out when `O=[N+]([O-])c1cc(C(F)(F)F)ccc1NCc1ccco1` [THS-020] was run?
The IC50 was 4.2e-06 M.
